Reference: ChEMBL document CHEMBL5325431, “Synthesis of thieno[3,2-e]pyrrolo[1,2-a]pyrimidine derivatives and their precursors containing 2-aminothiophenes fragments as anticancer agents for therapy of pulmonary metastatic melanoma” (Eur J Med Chem, 2023)
Active and inactive are the calls of the source. The rule behind the calls is not given here.

How the values were obtained:
B16-F10 [1] = test: Induction of apoptosis in mouse B16-F10 cells assessed as late apoptotic cells at 10 uM measured after 48 hrs by Annexin V-FITC/7-AAD staining based flow cytometric analysis relative to control; assay type: functional
B16-F10 [2] = test: Induction of apoptosis in mouse B16-F10 cells assessed as early apoptotic cells at 15 uM measured after 48 hrs by Annexin V-FITC/7-AAD staining based flow cytometric analysis relative to control; assay type: functional
B16-F10 [3] = test: Induction of apoptosis in mouse B16-F10 cells assessed as necrotic cells at 20 uM measured after 48 hrs by Annexin V-FITC/7-AAD staining based flow cytometric analysis relative to control; assay type: functional
B16-F10 [4] = test: Induction of apoptosis in mouse B16-F10 cells assessed as early apoptotic cells at 10 uM measured after 48 hrs by Annexin V-FITC/7-AAD staining based flow cytometric analysis relative to control; assay type: functional
B16-F10 [5] = test: Induction of apoptosis in mouse B16-F10 cells assessed as late apoptotic cells at 20 uM measured after 48 hrs by Annexin V-FITC/7-AAD staining based flow cytometric analysis relative to control; assay type: functional
CT26 = test: Cytotoxicity against mouse CT26 cells assessed as cell survival incubated for 24 hrs by alamarblue staining based analysis; assay type: functional; conditions: CT26, 24 h
[6] = Toxicity in C57BL/6 mouse assessed as change in body temperature at 37 mg/kg, ip measured for 22 days; assay type: organism-based; conditions: in vivo, 528 h, time 22 day
B16-F10 [7] = test: Antitumor activity against metastatic mouse B16-F10 cells implanted in C57BL/6 mouse assessed as number of lung metastases at 9 to 9.5 mg/kg, ip administered for 22 days by histological analysis (reference value: 223 +/- 12); assay type: functional; conditions: dose 9-9.5 mg/kg, time 22 day
[8] = Toxicity in C57BL/6 mouse assessed as effect on AST level at 37 mg/kg, ip measured for 22 days; assay type: organism-based; conditions: in vivo, 528 h, time 22 day
B16-F10 [9] = test: Induction of apoptosis in mouse B16-F10 cells assessed as early apoptotic cells at 20 uM measured after 48 hrs by Annexin V-FITC/7-AAD staining based flow cytometric analysis relative to control; assay type: functional
B16-F10 [10] = test: Antitumor activity against metastatic mouse B16-F10 cells implanted in C57BL/6 mouse assessed as number of lung metastases at 9 to 9.5 mg/kg, ip administered for 12 days by histological analysis (reference value: 150 +/- 7); assay type: functional; conditions: dose 9-9.5 mg/kg, time 12 day
4T1 = test: Cytotoxicity against mouse 4T1 cells assessed as cell survival incubated for 24 hrs by alamarblue staining based analysis; assay type: functional; conditions: 4T1, 24 h
[11] = Toxicity in C57BL/6 mouse implanted with mouse B16-F10 cells assessed as heart damage at 4.6 to 42 mg/kg, ip by H and E staining based analysis; assay type: organism-based; conditions: in vivo, dose 4.6-42 mg/kg
B16-F10 [12] = test: Induction of apoptosis in mouse B16-F10 cells assessed as necrotic cells at 15 uM measured after 48 hrs by Annexin V-FITC/7-AAD staining based flow cytometric analysis relative to control; assay type: functional
[13] = Toxicity in C57BL/6 mouse implanted with mouse B16-F10 cells assessed as spleen damage at 4.6 to 42 mg/kg, ip by H and E staining based analysis; assay type: organism-based; conditions: in vivo, dose 4.6-42 mg/kg
B16-F10 [14] = test: Induction of apoptosis in mouse B16-F10 cells assessed as early apoptotic cells at 5 uM measured after 48 hrs by Annexin V-FITC/7-AAD staining based flow cytometric analysis relative to control; assay type: functional
B16-F10 [15] = test: Induction of apoptosis in mouse B16-F10 cells assessed as viable cells at 20 uM measured after 48 hrs by Annexin V-FITC/7-AAD staining based flow cytometric analysis relative to control; assay type: functional; conditions: read-out: Activity
B16-F10 [16] = test: Cytotoxicity against mouse B16-F10 cells assessed as cell death by measuring increase in red fluorescence at 0.5 to 10 uM by calcein AM/PI staining based confocal laser scanning microscopy analysis; assay type: functional; conditions: dose 0.5-10 µM
[17] = Cytotoxicity against NF2-deficient mouse MEF cells assessed as cell survival incubated for 24 hrs by alamarblue staining based analysis; assay type: toxicity
[18] = Toxicity in C57BL/6 mouse implanted with mouse B16-F10 cells assessed as heart damage at 9 to 9.5 mg/kg, ip by H and E staining based analysis; assay type: organism-based; conditions: in vivo, dose 9-9.5 mg/kg
[19] = Toxicity in C57BL/6 mouse assessed as effect on urea level at 37 mg/kg, ip measured for 22 days; assay type: organism-based; conditions: in vivo, 528 h, time 22 day
[20] = Toxicity in C57BL/6 mouse implanted with mouse B16-F10 cells assessed as kidney damage at 9 to 9.5 mg/kg, ip by H and E staining based analysis; assay type: organism-based; conditions: in vivo, dose 9-9.5 mg/kg
B16-F10 [21] = test: Induction of apoptosis in mouse B16-F10 cells assessed as late apoptotic cells at 15 uM measured after 48 hrs by Annexin V-FITC/7-AAD staining based flow cytometric analysis relative to control; assay type: functional
[22] = Toxicity in C57BL/6 mouse implanted with mouse B16-F10 cells assessed as liver damage at 9 to 9.5 mg/kg, ip by H and E staining based analysis; assay type: organism-based; conditions: in vivo, dose 9-9.5 mg/kg
[23] = Toxicity in C57BL/6 mouse implanted with mouse B16-F10 cells assessed as kidney damage at 4.6 to 42 mg/kg, ip by H and E staining based analysis; assay type: organism-based; conditions: in vivo, dose 4.6-42 mg/kg
[24] = Toxicity in C57BL/6 mouse implanted with mouse B16-F10 cells assessed as spleen damage at 9 to 9.5 mg/kg, ip by H and E staining based analysis; assay type: organism-based; conditions: in vivo, dose 9-9.5 mg/kg
B16-F10 [25] = test: Induction of apoptosis in mouse B16-F10 cells assessed as viable cells at 10 uM measured after 48 hrs by Annexin V-FITC/7-AAD staining based flow cytometric analysis relative to control; assay type: functional; conditions: read-out: Activity
B16-F10 [26] = test: Induction of apoptosis in mouse B16-F10 cells assessed as late apoptotic cells at 5 uM measured after 48 hrs by Annexin V-FITC/7-AAD staining based flow cytometric analysis relative to control; assay type: functional
B16-F10 [27] = test: Induction of apoptosis in mouse B16-F10 cells assessed as necrotic cells at 10 uM measured after 48 hrs by Annexin V-FITC/7-AAD staining based flow cytometric analysis relative to control; assay type: functional
B16-F10 [28] = test: Antitumor activity against metastatic mouse B16-F10 cells implanted in C57BL/6 mouse assessed as number of lung metastases at 9 to 9.5 mg/kg, ip administered for 15 days by histological analysis (reference value: 175 +/- 10); assay type: functional; conditions: dose 9-9.5 mg/kg, time 15 day
[29] = Toxicity in C57BL/6 mouse implanted with mouse B16-F10 cells assessed as liver damage at 4.6 to 42 mg/kg, ip by H and E staining based analysis; assay type: organism-based; conditions: in vivo, dose 4.6-42 mg/kg
[30] = Toxicity in C57BL/6 mouse assessed as body weight gain at 37 mg/kg, ip measured for 22 days; assay type: organism-based; conditions: in vivo, 528 h, time 22 day
B16-F10 [31] = test: Induction of apoptosis in mouse B16-F10 cells assessed as viable cells at 15 uM measured after 48 hrs by Annexin V-FITC/7-AAD staining based flow cytometric analysis relative to control; assay type: functional; conditions: read-out: Activity
B16-F10 [32] = test: Antitumor activity against metastatic mouse B16-F10 cells implanted in C57BL/6 mouse assessed as number of lung metastases at 9 to 9.5 mg/kg, ip administered for 19 days by histological analysis (reference value: 190 +/- 9); assay type: functional; conditions: dose 9-9.5 mg/kg, time 19 day

Structure (SMILES)	Activity (B16-F10 [1])	Activity (B16-F10 [2])	Activity (B16-F10 [3])	Activity (B16-F10 [4])	Activity (B16-F10 [5])	IC50 (CT26)	Activity [6]	Activity (B16-F10 [7])	Activity [8]	Activity (B16-F10 [9])	Activity (B16-F10 [10])	IC50 (4T1)	Activity [11]	Activity (B16-F10 [12])	Activity [13]	Activity (B16-F10 [14])	viability at 20 µM (B16-F10 [15])	Activity (B16-F10 [16])	IC50 at 24 h [17]	Activity [18]	other results
CCOC(=O)c1c(N2C(N)=C(C#N)C(=O)/C2=C\C(=O)c2ccc(C)cc2)sc2c1CCCCC2	75.6%	0.5%	2.3%	1.5%	96.5%	7.4 µM	Non-Toxic	40	Non-Toxic	1%	145	6.5 µM	Non-Toxic	3.3%	Non-Toxic	1.4%	0.2%	Active	> 100 µM	Non-Toxic	Activity [19]: Non-Toxic; Activity [20]: Non-Toxic; Activity (B16-F10 [21]): 96.1%; Activity [22]: Non-Toxic; Activity [23]: Non-Toxic; Activity [24]: Non-Toxic; viability at 10 µM (B16-F10 [25]): 1.1%; Activity (B16-F10 [26]): 30.4%; Activity (B16-F10 [27]): 21.8%; Activity (B16-F10 [28]): 105; Activity [29]: Non-Toxic; Activity [30]: Toxic; viability at 15 µM (B16-F10 [31]): 0.1%; Activity (B16-F10 [32]): 67
CCOC(=O)c1c(NC(=C\C(=O)c2ccc(OC)cc2)/C([O-])=C(\C#N)C(N)=O)sc2c1CCCC2.[K+]	85.3%	0.5%	3.8%	0.3%	95.1%	4.3 µM	Non-Toxic	21	Non-Toxic	0.8%	161	3.8 µM	Non-Toxic	4.9%	Non-Toxic	2.2%	0.3%	Active	> 100 µM	Non-Toxic	Activity [19]: Non-Toxic; Activity [20]: Non-Toxic; Activity (B16-F10 [21]): 94.3%; Activity [22]: Non-Toxic; Activity [23]: Non-Toxic; Activity [24]: Non-Toxic; viability at 10 µM (B16-F10 [25]): 0.5%; Activity (B16-F10 [26]): 43.5%; Activity (B16-F10 [27]): 14%; Activity (B16-F10 [28]): 94; Activity [29]: Non-Toxic; Activity [30]: Toxic; viability at 15 µM (B16-F10 [31]): 0.3%; Activity (B16-F10 [32]): 54
COc1ccc(C(=O)/C=C2\C(=O)C(C#N)=C3NC(=O)c4c(sc5c4CCCCC5)N32)cc1	88.6%	0.8%	7.4%	0.5%	92%	9.3 µM	Non-Toxic	75	Non-Toxic	0.3%	143	8.8 µM	Non-Toxic	7.2%	Non-Toxic	2.8%	0.2%	Active	> 100 µM	Non-Toxic	Activity [19]: Non-Toxic; Activity [20]: Non-Toxic; Activity (B16-F10 [21]): 91.7%; Activity [22]: Non-Toxic; Activity [23]: Non-Toxic; Activity [24]: Non-Toxic; viability at 10 µM (B16-F10 [25]): 0.3%; Activity (B16-F10 [26]): 30.8%; Activity (B16-F10 [27]): 10.7%; Activity (B16-F10 [28]): 120; Activity [29]: Non-Toxic; Activity [30]: Toxic; viability at 15 µM (B16-F10 [31]): 0.4%; Activity (B16-F10 [32]): 87
